# Laboratory results reported in patent US20120289517A1, “SOLID PHARMACEUTICAL COMPOSITION FOR ORAL ADMINISTRATION” (Kowa Co., Ltd., priority 2009, published 2012).
# Legend:
# Solubility in water = assay type: physicochemical
# [1] = Dissolution test (paddle method, Japanese Pharmacopoeia); assay type: physicochemical; conditions: summary of Test Example 1
# Procedure: Thus, the concentrations of the compound a after 5, 10, 15, 30, 45 and 60 minutes were measured. The sample solution collected at each time point was filtered through a membrane filter made of PTFE (DISMIC-25HP manufactured by Toyo Roshi Kaisha, Ltd.) having a pore size of 0.45 μm, and was analyzed by a high performance liquid chromatographic method using a reversed phase column (manufactured by Nomura Chemical Co., Ltd.; Develosil ODS-HG-5). Thus, the dissolution rates were calculated.
compound,measurement,setting,value
"CSc1cc(C)nc(SC)c1NC(=O)CN1CCN(CCSc2nc3ccccc3[nH]2)CC1 [compound a, 2-[4-[2-(Benzimidazol-2-ylthio)ethyl]piperazin-1-yl]-N-[2,4-bis(methylthio)-6-methyl-3-pyridyl]acetamide]",solubility in water,Solubility in water,0.05 % (W/V)
same,"dissolubility, result in words",[1],hardly dissolved
